Data taken from US9334280B2, “Synthetic rigidin analogues as anticancer agents, salts, solvates and prodrugs thereof, and method of producing same” (New Mexico Technical Research Foundation, priority 2012, dated 2016).
Like-named read-outs stand apart in the source and are kept apart here.

Legend:
[1] = system: MCF-7 mammary gland adenocarcinoma cells; assay: MTT antiproliferative assay, MCF-7; format: cell-based; conditions: Homo sapiens, MCF7, 48 h, MTT, ± SD
Method: (§1) Human T-cell leukemia cell line Jurkat (ATCC TIB-152, E6-1 clone) was cultured in RPMI-1640 (Invitrogen) supplemented with 10% FBS (Invitrogen), 100 mg/L penicillin G, 100 mg/L streptomycin, 1.0 mM sodium pyruvate, 1.5 g/L sodium bicarbonate, and 4.5 g/L glucose (all from Sigma). Human cervical cancer cell line HeLa (ATCC S3) was cultured in DMEM (Invitrogen) supplemented with 10% FBS, 100 mg/L penicillin G, and 100 mg/L streptomycin. MCF-7 (human mammary carcinoma) cells were cultured in DMEM supplemented with 1.0 mM sodium pyruvate, 1% GlutaMax™-1 (Invitrogen), 100 μg/mL penicillin, 100 μg/mL streptomycin, and 10% FBS. Human uterine sarcoma MES-SA and MES-SA/Dx5 cells were cultured in RPMI-1640 medium supplemented with 10% FBS, 100 mg/L penicillin G and 100 mg/L streptomycin. All cells were incubated at 37° C. in a humidified atmosphere with 5% CO2. The other cell lines were maintained in a similar fashion as previously described.
(§2) To evaluate antiproliferative properties of the compounds of Formula I, mitochondrial dehydrogenase activities were measured using the MTT assay. The cell lines were prepared by trypsinizing and seeding […] cells per well into microplates. All compounds were reconstituted in dimethyl sulfoxide (DMSO) at a concentration of either 100 mM or 25 mM prior to treatment. The cells were grown for 24 hrs before treatment at concentrations ranging from 0.004 to 100 microM and incubated for 48 hrs in 200 microL media. 20 microL of MTT reagent in serum free medium (5 mg/mL) was added to each well and incubated further for 2 hrs. Media was removed and the resulting formazan crystals were re-solubilized in 100 microL of DMSO and the optical density (OD) was measured using a Thermomax Molecular Device plate reader at a wavelength of 490 nm. The experiments were performed in quadruplicate and repeated at least twice for each compound per cell line. Cells treated with 0.1% DMSO were used as a negative control, while phenyl arsine oxide (PAO) was used as a positive killing control.
(§3) Human cancer cell lines were obtained from the American Type Culture Collection (ATCC, Manassas, Va., USA), the European Collection of Cell Culture (ECACC, Salisbury, UK) and the Deutsche Sammlung von Mikroorganismen and Zellkulturen (DSMZ, Braunschweig, Germany). Human cervical adenocarcinoma HeLa cells were cultured in DMEM supplemented with 10% fetal bovine serum (FBS). Human mammary carcinoma MCF-7 cells were cultured in RPMI supplemented with 10% FBS. The U87 and U373 cells were cultured in DMEM culture medium (Lonza code 12-136F, Vervier, Belgium), while the SKMEL-28 and A549 cells were cultured in RPMI culture medium (Lonza; code 12-115F) supplemented with 10% heat-inactivated FBS (Lonza, FBS South America code DE14-801F). […] All cell lines were cultured in T25 flasks, maintained and grown at 37° C., 95% humidity, 5% CO2.
(§4) To evaluate antiproliferative properties of the synthesized compounds, the MTT assay was used. The cell lines were assessed by trypsinizing each cell line and seeding 4×10^3 cells per well into 96-well plates. All compounds were dissolved in DMSO at a concentration of either 100 mM or 50 mM prior to cell treatment. The cells were grown for 24 h and then treated with compounds at concentrations ranging from 0.04 to 100 μM and incubated for 48 h in 200 μL media. 20 μL of MTT reagent in serum free medium (5 mg/mL) was added to each well and incubated further for 2 h. Media was removed, and the resulting formazan crystals were re-solubilized in 200 μL of DMSO. A490 was measured using a Thermomax Molecular Device plate reader. The experiments were performed in quadruplicate and repeated at least twice for each compound per cell line. Cells treated with 0.1% DMSO were used as a control, and 1 μM phenyl arsine oxide (PAO) was used as a positive killing control.

[2] = system: A549 non-small-cell lung cancer cells; assay: MTT antiproliferative assay, A549; format: cell-based; conditions: Homo sapiens, Table 6, 48 h, ± SD, read-out: GI50 in vitro Values, A549
Method: as §2, §3, §4

[3] = system: HeLa cervical adenocarcinoma cells; assay: MTT antiproliferative assay, HeLa; format: cell-based; conditions: Homo sapiens, MTT, ± SD
Method: as §1, §2, §3, §4

U-87 glioblastoma cells = assay: MTT antiproliferative assay, U-87; format: cell-based; conditions: Homo sapiens, Table 6, 48 h, ± SD, read-out: GI50 in vitro Values, U-87
Method: as §3, §4

HeLa and MCF-7 cells = assay: MTT antiproliferative activity, statements for HeLa and MCF-7; format: cell-based, human; conditions: HeLa and MCF-7, 48 h
Method: as §2
The obtained compounds were evaluated for antiproliferative activities using the HeLa cell line as a model for human cervical adenocarcinoma and MCF-7 cells as a model for breast adenocarcinoma. The cells were treated with each compound for 48 h, and cell viability was assessed using the MTT method (Table 5).
as §4

[4] = system: MES-SA/Dx5 uterine sarcoma cells (overexpress p-gp); assay: MTT antiproliferative assay, MDR MES-SA/Dx5; format: cell-based, human; conditions: MES-SA/Dx5 vs MES-SA
Method: as §1, §2
The cells of such tumors are referred to as multidrug resistant (MDR). Thus, we assessed the compounds of Formula I for antiproliferative activity in an MDR cancer cell line. This was done using the uterine sarcoma cells, MES-SA/Dx5, which overexpress p-gp. The parental drug-responsive MES-SA cell line was used as control.

HeLa cells = assay: Flow cytometric cell cycle analysis (Vybrant Orange); format: cell-based, human; conditions: 0.1 μM, 24 h
Method: To assess the effects of the analogues on the cell cycle, cell cycle analysis was performed. 70-80% confluent HeLa cells were trypsinized and seeded at an initial density of 2×10^5 cell per well into 6 well plates in DMEM supplemented with 10% FBS, 100 mg/L penicillin G and 100 mg/L streptomycin. The cells were allowed to adhere overnight and before treatment with compounds of Formula I at concentrations ranging from 0.1 to 10 microM. After 24 hrs, the cells were washed 3× with DMEM, trypsinized, pelleted, and re-suspended in 200 microL of culture medium containing 10 microM (2 microL/mL) vybrant orange dye. The samples in the labeling solution were transferred into Falcon tubes and incubated in a water bath for 30 mins at 37° C. The samples were then analyzed using a Becton Dickinson FACscan flow cytometer with CellQuest software. A 488 nm laser was utilized using parameters that can be found in Appendix B; 10,000 events were collected for analysis. Cells treated with 0.1% DMSO were used as a negative control and cells treated with colchicine were used as a positive control.
In further anticancer evaluation of compounds of Formula I cell cycle analysis was performed using the cell permeable DNA binding dye Vybrant Orange. In a normal population, cells are distributed among the three major phases of the cell cycle, G0/G1 in which there is one set of paired chromosomes per cell (2n), followed by the S or synthesis phase in which DNA is synthesized in preparation for division (there is a variable amount of DNA present during this phase) and finally G2/M phase in which the chromosomes of each cell have now been duplicated (4n). This DNA content can be measured using fluorescent DNA selective probes such as Vybrant Orange that produce signals that are proportional to DNA mass per cell. This dye interacts with double stranded DNA (dsDNA) in living cells and becomes fluorescent upon binding and thus can be used to track DNA content as cells progress through the various phases of the cell cycle using flow cytometry. Cell cycle analysis was performed on HeLa cells using Rig8 at various concentrations above and below the respective GI50. Since colchicine is a known antimitotic drug, it was utilized as a positive control, while HeLa cells treated with 0.1% DMSO were used as a negative control. FIG. 6 illustrates the results of this analysis using Rig 8 on HeLa cells.

[5] = Table 6, read-out: GI50 in vitro Values, MCF-7
[6] = Table 6, 48 h, read-out: GI50 in vitro Values, HeLa
[7] = Table 5, read-out: cell viability GI50, MCF-7
[8] = Table 5, 48 h, read-out: cell viability GI50, HeLa

Row | Compound | GI50 [1, 5] [nM] | GI50 [2] [nM] | GI50 [3, 6] [nM] | GI50 (U-87 glioblastoma cells) [nM] | GI50 [1, 7] [nM] | GI50 [3, 8] [nM] | antiproliferative activity (potency in words) (HeLa and MCF-7 cells) | also measured
1 | Cc1nc(=O)c2c(-c3cccc(F)c3)c(C(=O)c3ccccc3)[nH]c2[nH]1 [Compound 20, 6-Benzoyl-5-(3-fluorophenyl)-2-methyl-1H-pyrrolo[2,3-d]pyrimidin-4(7H)-one] | 360 ± 20 | 1000 ± 900 | 290 ± 30 | 1700 ± 100 | – | – | – | –
2 | Cc1nc(=O)c2c(-c3cc(Br)cc(Br)c3)c(C(=O)c3ccccc3)[nH]c2[nH]1 [Compound 23, 6-Benzoyl-5-(3,5-dibromophenyl)-2-methyl-1H-pyrrolo[2,3-d]pyrimidin-4(7H)-one] | 270 ± 10 | 380 ± 80 | 290 ± 10 | 720 ± 60 | – | – | – | –
3 | CC(=O)O[C@H]1C(=O)[C@@]2(C)[C@H]([C@H](OC(=O)c3ccccc3)[C@]3(O)C[C@H](OC(=O)[C@H](O)[C@@H](NC(=O)c4ccccc4)c4ccccc4)C(C)=C1C3(C)C)[C@]1(OC(C)=O)CO[C@@H]1C[C@@H]2O [Taxol, reference compound] | – | – | – | – | – | – | – | times less potent against the MDR cells compared with the parental MES-SA cells [4]: ca. 1000 times
4 | Cc1nc(=O)c2c(-c3cccc(Cl)c3)c(C(=O)c3ccccc3)[nH]c2[nH]1 [Compound 18, 6-Benzoyl-5-(3-chlorophenyl)-2-methyl-1H-pyrrolo[2,3-d]pyrimidin-4(7H)-one] | 230 | 600 ± 230 | 270 ± 10 | 900 ± 160 | – | – | – | –
5 | CC[C@]1(O)C[C@@H]2CN(CCc3c([nH]c4ccccc34)[C@@](C(=O)OC)(c3cc4c(cc3OC)N(C)[C@H]3[C@@](O)(C(=O)OC)[C@H](OC(C)=O)[C@]5(CC)C=CCN6CC[C@]43[C@@H]65)C2)C1 [Vinblastine, reference compound] | – | – | – | – | – | – | – | times less potent against the MDR cells compared with the parental MES-SA cells [4]: ca. 1000 times
6 | COc1cc2c(c(OC)c1OC)-c1ccc(OC)c(=O)cc1[C@@H](NC(C)=O)CC2 [Colchicine, reference compound] | – | – | – | – | – | – | – | % Relative DNA Content, G0/G1 (HeLa cells): 28.7 ± 1.2%; % Relative DNA Content, G2/M (HeLa cells): 53.6 ± 1.3%; % Relative DNA Content, S (HeLa cells): 15.7 ± 1.9%

Second part, led by results:

Row | GI50 [1, 5] [nM] | GI50 [2] [nM] | GI50 [3, 6] [nM] | GI50 (U-87 glioblastoma cells) [nM] | GI50 [1, 7] [nM] | GI50 [3, 8] [nM] | Compound | antiproliferative activity (potency in words) (HeLa and MCF-7 cells) | also measured
7 | – | – | – | – | 8300 ± 800 | 9100 ± 300 | CC(C)c1nc(=O)c2c(-c3ccccc3)c(C(=O)c3ccccc3)[nH]c2[nH]1 [Compound 9] | double to single digit micromolar | –
8 | – | – | – | – | 45 ± 1 | – | C#CCCCc1nc(=O)c2c(-c3ccccc3)c(C(=O)c3ccccc3)[nH]c2[nH]1 [Compound 17, 6-Benzoyl-2-(pent-4-ynyl)-5-phenyl-1H-pyrrolo[2,3-d]pyrimidin-4(7H)-one] | nanomolar | –
9 | 35 ± 3 | 250 ± 10 | 29 ± 1 | 77 ± 2 | 35 ± 3 | 29 ± 1 | Cc1nc(=O)c2c(-c3ccccc3)c(C(=O)c3ccccc3)[nH]c2[nH]1 [Compound 13, 6-Benzoyl-2-methyl-5-phenyl-1H-pyrrolo[2,3-d]pyrimidin-4(7H)-one] | nanomolar | –
10 | – | – | – | – | 23100 ± 500 | 18400 ± 1800 | O=C(c1ccccc1)c1[nH]c2[nH]c(-c3ccco3)nc(=O)c2c1-c1ccccc1 [Compound 6] | double to single digit micromolar | –
11 | – | – | – | – | 2500 ± 300 | 2700 ± 200 | O=C(c1ccccc1)c1[nH]c2[nH]c(-c3ccccn3)nc(=O)c2c1-c1ccccc1 [Compound 5] | double to single digit micromolar | –
12 | 270 ± 30 | 650 ± 190 | 290 ± 10 | 940 ± 120 | – | – | Cc1nc(=O)c2c(-c3cccc(Br)c3)c(C(=O)c3ccccc3)[nH]c2[nH]1 [Compound 19, 6-Benzoyl-5-(3-bromophenyl)-2-methyl-1H-pyrrolo[2,3-d]pyrimidin-4(7H)-one] | – | –
13 | – | – | – | – | 10400 ± 800 | 11100 ± 400 | CCOc1nc(=O)c2c(-c3ccccc3)c(C(=O)c3ccccc3)[nH]c2[nH]1 [Compound 8] | double to single digit micromolar | –
